Test results reported in patent US6221914A, “Sulfonamide bridging compounds that inhibit tryptase activity” (Array Biopharma Inc., priority 1998, dated 2001).
pKi: −log10 of the molar value.

Columns and labels:
Format in all cases: biochemical
[1] = target: T1, Human Neutrophil elastase (Homo sapiens, UniProt P08246); test: Ki determination, human neutrophil elastase (pyroGlu-Pro-Val-pNA); settings: 100 mM Tris-HCl, pH 8.3, 0.96 M NaCl, 1% BSA; read-out: Experimentally Determined Ki, Elastase
T1 construct: from tissue; host or cells: human neutrophils
T1 sequence (P08246 30-267): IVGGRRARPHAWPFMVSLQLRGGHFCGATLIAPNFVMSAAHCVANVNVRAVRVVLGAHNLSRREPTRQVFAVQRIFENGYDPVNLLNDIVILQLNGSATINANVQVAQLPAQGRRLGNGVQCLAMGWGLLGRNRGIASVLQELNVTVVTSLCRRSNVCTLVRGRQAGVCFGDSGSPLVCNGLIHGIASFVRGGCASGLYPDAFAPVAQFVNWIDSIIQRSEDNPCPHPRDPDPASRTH
Protocol: (§1) Protease inhibition was assayed according to published procedures with minor modifications using various proteases and specific chromogenic peptide p-nitroanilide substrates. Assays were performed in Costar ultra-low cluster 96-well microtiter plate (Costar Corning Corp., Cambridge Mass.). Each protease was incubated with various concentrations of the test compound for 15 min. at 37° C. or as otherwise indicated, in specific assay buffer, and the residual activity was then measured by addition of the substrate. p-Nitroaniline produced by the proteolysis was determined by measuring the change in absorbance at 405 nm on a SpectraMAX 340 plate reader (Molecular devices, Sunnyvale, Calif.).
(§2) 1. The inhibition constant, Ki is calculated from individual data points using the equation for a tight-binding inhibitor (See Beith, "Proteinase Inhibitors-Proceedings of 2nd Int. Res. Conference", Fritz, et al. eds, New York, p.4463-4469 (1974)):
(§3) vi /vo [((Ki '+[I]+[E]o)^2 -4 [I]o
(§4) [E]o)^1/2 (Ki '+[I]o -[E]o)]/2[E]o
(§5) where Ki ' is apparent inhibition constant; vi and vo are the inhibited and uninhibited rates, respectively; [I]o and [E]o are the total concentrations of inhibitor and enzyme, respectively.
(§6) [note: [E]o is determined by active site titration of enzyme]
(§7) The Ki values are obtained by correcting Ki ' values for the effect of substrate concentration according to: [formula]
(§8) 2. Other inhibition data (Ki >>[E]o), the Ki is calculated from using the equations for a competitive inhibitor: [formula]
Human Neutrophil elastase activity was determined by using pyroGlu-Pro-Val-pNA in 100 mM Tris-HCl, pH 8.3, 0.96 M NaCl, 1% BSA (See Kramps, et al. Scand. J. Clin. Lab. Invest. 43, 427-432 (1983)).
(§9) The inhibition constant (Ki) of the test compounds against each proteolytic enzyme was determined according to Zitnik et al., Biochem. Biophys. Res. Commun. 232, 687-697 (1997)).

[2] = target: T2, Human plasma factor Xa (Homo sapiens, UniProt P00742); test: Ki determination, human plasma factor Xa (N-Benzoyl-Ile-Glu-Gly-Arg-pNA); settings: 50 mM Tris-HCl, pH 7.8, 200 mM NaCl, 0.05% BSA; read-out: Experimentally Determined Ki, Factor Xa
T2 construct: from tissue; host or cells: human plasma
Protocol: as §1, §2, §3, §4, §5, §6, §7, §8
Human plasma factor Xa activity was determined by using N-Benzoyl-Ile-Glu-Gly-Arg-pNA in 50 mM Tris-HCl, pH 7.8, 200 mM NaCl, 0.05% BSA (See Lottenberg, et al. Meth. Enzymol. 80, 341-361 (1981)).
as §9

[3] = target: Human lung tryptase; test: Ki determination, human lung tryptase (Tosyl-Gly-Pro-Arg-pNA substrate); settings: 50 mM Tris-HCl pH 8.0, 37° C., 1 nM tryptase, 320 μM GPR-pNA; read-out: Experimentally Determined Ki, Tryptase
Protocol: as §1, §2, §3, §4, §5, §6, §7, §8
Human lung tryptase purchased from Cortex Biochem (San Leandro, Calif.) was purified further on a Superdex 200 gel-filtration column. The active-site concentration of the enzyme was determined by spectrophotometric titration with 4-nitrophenyl 4'-guanidinobenzoate according to Schwartz, et al., J. Immunol., 114, 2304-2311 (1990). Tryptase activity was measured according to the procedures of Schwartz, et al., J. Biol. Chem., 261, 7372-7379 (1986) (See also, Schwartz, L. B., Methods In Enzymology, 244, 88 (1994)) with minor modifications, using Tosyl-Gly-Pro-Arg-p-nitroanilide ("GPR-pNA", Sigma Chemical Co., St. Louis, Mo., T-1637) as a chromogenic substrate. The reaction was performed in 50 mM Tris-HCl, pH 8.0, containing 150 mM NaCl and 0.02% Triton X-100 at 37° C. in Costar ultra-low cluster 96-well microtiter plates (Costar Corning Corp., Cambridge, Mass.). The amount of pNA produced by tryptase was determined by measuring the change in absorbance at 405 nm on a SpectraMAX 340 plate reader (Molecular devices, Sunnyvale, Calif.). The Km for the substrate was determined by Lineweaver-Burk analysis from initial velocities of substrate hydrolysis. The inhibition assay was carried out in a total volume of 200 μL. Tryptase (30 μL- final concentration 1 nM) was incubated with various concentrations of sample compound (50 μL) to be tested in the above assay buffer for 5 min. The reaction was started by the addition of substrate GPR-pNA (40 μL-final concentration 320 μM), and the residual activity was measured after 15 min. of incubation. The inhibition constant, Ki, was determined by fitting the inhibition data to a two-site competitive binding equation using data analysis program GraphPad PRISM (GraphPad Software, Inc., San Diego, Calif.).
as §9

[4] = target: r-tissue kallikrein (Homo sapiens, UniProt P06870); test: Ki determination, r-tissue kallikrein (DL-Val-Leu-Arg-pNA); settings: 50 mM Tris-HCl, pH 7.8, 200 mM NaCl, 0.05% BSA; read-out: Experimentally Determined Ki, Tissue Kallikrein
Protocol: as §1, §2, §3, §4, §5, §6, §7, §8
I. Human Plasma and r-Tissue Kallikrein
Human plasma and r-tissue kallikrein activity were determined in 50 mM Tris-HCl, pH 7.8, 200 mM NaCl, 0.05% BSA by using H-D-Prolyl-Phe-Arg-pNA and DL-Val-Leu-Arg-pNA, respectively (See Lottenberg, et al., Meth. Enzymol. 80, 341-361 (1981)).
as §9

[5] = target: T3, Human plasma plasmin (Homo sapiens, UniProt P00747); test: Ki determination, human plasma plasmin (Tosyl-Gly-Pro-Lys-pNA); settings: 100 mM Tris-HCl, pH 7.4, 100 mM NaCl, 0.05% Triton X-100; read-out: Experimentally Determined Ki, Plasmin
T3 construct: from tissue; host or cells: human plasma
Protocol: as §1, §2, §3, §4, §5, §6, §7, §8
Human plasma plasmin activity was determined by using Tosyl-Gly-Pro-Lys-pNAin 100 mM Tris-HCl, pH 7.4, 100 mM NaCl, 0.05% Triton X-100 (See Lottenberg, et al., Meth. Enzymol. 80, 341-361 (1981)).
as §9

T3 sequence (P00747 581-810 limits assumed): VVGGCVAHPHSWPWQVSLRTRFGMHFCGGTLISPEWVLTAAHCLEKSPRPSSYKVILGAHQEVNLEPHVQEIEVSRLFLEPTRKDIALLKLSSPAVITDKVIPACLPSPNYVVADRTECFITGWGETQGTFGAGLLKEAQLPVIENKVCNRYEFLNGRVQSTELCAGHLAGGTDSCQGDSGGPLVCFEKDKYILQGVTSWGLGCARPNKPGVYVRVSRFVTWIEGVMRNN
T3 sequence (P00747 97-580 partner limits assumed): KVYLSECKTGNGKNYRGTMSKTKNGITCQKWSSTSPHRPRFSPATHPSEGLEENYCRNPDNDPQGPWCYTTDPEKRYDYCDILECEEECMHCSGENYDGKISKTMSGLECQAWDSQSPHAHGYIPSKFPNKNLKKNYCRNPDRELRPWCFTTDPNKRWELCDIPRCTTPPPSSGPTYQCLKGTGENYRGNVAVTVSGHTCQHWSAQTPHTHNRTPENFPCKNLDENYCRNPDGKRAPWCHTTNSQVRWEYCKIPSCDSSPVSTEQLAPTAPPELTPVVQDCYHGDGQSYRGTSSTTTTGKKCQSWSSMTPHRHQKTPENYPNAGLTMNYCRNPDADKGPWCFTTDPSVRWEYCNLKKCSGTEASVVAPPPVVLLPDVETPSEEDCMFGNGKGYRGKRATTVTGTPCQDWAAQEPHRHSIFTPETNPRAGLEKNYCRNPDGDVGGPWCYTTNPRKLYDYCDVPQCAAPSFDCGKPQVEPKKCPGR
T2 sequence (P00742 235-488 limits assumed): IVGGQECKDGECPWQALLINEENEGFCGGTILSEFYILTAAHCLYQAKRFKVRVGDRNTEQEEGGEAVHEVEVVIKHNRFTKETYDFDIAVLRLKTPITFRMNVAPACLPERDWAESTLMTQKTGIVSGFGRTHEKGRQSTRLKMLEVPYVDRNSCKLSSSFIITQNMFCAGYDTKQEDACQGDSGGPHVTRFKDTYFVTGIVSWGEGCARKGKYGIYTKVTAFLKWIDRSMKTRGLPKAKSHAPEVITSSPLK
T2 sequence (P00742 41-179 partner limits assumed): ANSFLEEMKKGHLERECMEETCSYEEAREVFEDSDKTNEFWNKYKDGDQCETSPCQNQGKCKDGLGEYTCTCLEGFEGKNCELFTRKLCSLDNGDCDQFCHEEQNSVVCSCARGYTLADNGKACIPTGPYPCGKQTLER
r-tissue kallikrein, sequence (P06870 25-262): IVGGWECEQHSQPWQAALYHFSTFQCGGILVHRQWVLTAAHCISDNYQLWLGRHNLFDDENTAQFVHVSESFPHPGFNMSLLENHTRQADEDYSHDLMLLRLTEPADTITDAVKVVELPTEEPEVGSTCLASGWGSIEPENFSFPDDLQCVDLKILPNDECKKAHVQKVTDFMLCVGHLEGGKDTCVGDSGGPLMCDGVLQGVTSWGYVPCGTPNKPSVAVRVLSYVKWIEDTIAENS

Row | SMILES | pKi [1] | pKi [2] | pKi [3] | pKi [4] | pKi [5]
1 | N=C(N)c1cccc(S(=O)(=O)NCc2ccc(OCCCCCCOc3ccc(CNS(=O)(=O)c4cccc(C(=N)N)c4)cc3)cc2)c1 [Example 43, 1,6-Bis-{4-[(3-carbamimidoyl-benzenesulfonylamino)-methyl]-phenoxy}-hexane] | < 4.00 | 4.81 | 6.96 | < 4.00 | 5.59
2 | N=C(N)c1ccc(S(=O)(=O)NCc2ccc(OCCCOc3ccc(CNS(=O)(=O)c4ccc(C(=N)N)cc4)cc3)cc2)cc1 [Example 50, 1,3-Bis-{4-[(4-carbamimidoyl-benzenesulfonylamino)-methyl]-phenoxy}-propane] | < 4.00 | < 4.00 | 6.10 | < 4.00 | 5.21
3 | N=C(N)c1cccc(C(=O)NCc2ccc(OCCCCCCOc3ccc(CNC(=O)c4cccc(C(=N)N)c4)cc3)cc2)c1 [Example 57, 1,6-Bis-{4-[(3-carbamimidoyl-benzenecarbonylamino)-methyl]-phenoxy}-hexane] | < 4.00 |  | 8.00 | < 4.00 | 4.97
4 | N=C(N)c1ccc(C(=O)NCc2ccc(OCC3(COc4ccc(CNC(=O)c5ccc(C(=N)N)cc5)cc4)CCC3)cc2)cc1 [Example 93, 1,1-Bis-{4-[(4-carbamimidoyl-benzoyl-amino)-methyl]-phenoxy-methyl}-cyclobutane] | < 4.00 | 4.82 | 9.00 | 4.85 | 5.17
5 | N=C(N)c1ccc(C(=O)NCc2ccc(OCCOc3ccc(CNC(=O)c4ccc(C(=N)N)cc4)cc3)cc2)cc1 [Example 64, 1,2-Bis-{4-[(4-carbamimidoyl-benzoylamino)-methyl]-phenoxy}-ethane] | < 4.00 | 4.45 | 7.30 | < 4.00 | 5.19
6 | N=C(N)c1ccc2[nH]c(CC(=O)NCc3ccc(OCCCOc4ccc(CNC(=O)Cc5nc6cc(C(=N)N)ccc6[nH]5)cc4)cc3)nc2c1 [Example 107, 2-(5-Carbamimidoyl-1H-benzoimidazol-2-yl)-N-{4,-[3-(4-{2-(5-carbamimidoyl-1H-benzoimidazol-2-yl)acetylaminol-methyl}-phenoxy)-propoxy]-benzyl}-acetamide] | < 4.00 | 4.57 | 7.92 | < 4.00 | 5.68
7 | N=C(N)c1ccc(C(=O)NCc2ccc(OCCCOc3ccc(CNC(=O)c4ccc(C(=N)N)cc4)cc3)cc2)cc1 [Example 62, 1,3-Bis-{4-[(4-carbamimidoyl-benzoylamino)-methyl]-phenoxy}-propane] | < 4.00 | 4.46 | 9.30 | < 4.00 | 4.94
8 | CN(Cc1ccc(OCCCOc2ccc(CN(C)S(=O)(=O)c3cccc(C(=N)N)c3)cc2)cc1)S(=O)(=O)c1cccc(C(=N)N)c1 [Example 68, 1,3-Bis-{4-[(3-carbamimidoyl-benzenesulfonyl-[N-methyl]-amino)-methyl]-phenoxy}-propane] | < 4.00 | 4.70 | 7.70 | < 4.00 | 5.00
9 | N=C(N)c1cccc(S(=O)(=O)NCc2ccc(COCc3ccc(CNS(=O)(=O)c4cccc(C(=N)N)c4)cc3)cc2)c1 [Example 53, 1,3-Bis-{4-[(3-carbamimidoyl-benzenesulfonylamino)-methyl]-phenyl}-2-oxapropane] | < 4.00 | 4.80 | 7.00 | < 4.00 | 5.00
10 | N=C(N)c1ccc(C(=O)NCc2ccc(OCCCCCOc3ccc(CNC(=O)c4ccc(C(=N)N)cc4)cc3)cc2)cc1 [Example 54, 1,5-Bis-{4-[(4-carbamimidoyl-benzenecarbonylamino)-methyl]-phenoxy}-pentane] | < 4.00 | < 4.00 |  | < 4.00 | 5.39
11 | N=C(N)c1ccc2[nH]c(CC(=O)NCc3ccc(OCCCCCOc4ccc(CNC(=O)Cc5nc6cc(C(=N)N)ccc6[nH]5)cc4)cc3)nc2c1 [Example 108] | < 4.00 | 4.72 | 8.05 | < 4.00 | 5.85
12 | N=C(N)c1cccc(C(=O)NCc2ccc(OCCCCCCCOc3ccc(CNC(=O)c4cccc(C(=N)N)c4)cc3)cc2)c1 [Example 59, 1,7-Bis-{4-[(3-carbamimidoyl-benzenecarbonylamino)-methyl]-phenoxy}-heptane] | < 4.00 | 5.08 | 7.10 | < 4.00 | 5.06
13 | N=C(N)c1cccc(S(=O)(=O)NCc2ccc(OCCCCOc3ccc(CNS(=O)(=O)c4cccc(C(=N)N)c4)cc3)cc2)c1 [Example 47, 1,4-Bis-{4-[(3-carbamimidoyl-benzenesulfonylamino)-methyl]-phenoxy}-butane] | < 4.00 | 5.54 | 7.52 | < 4.00 | 7.22
14 | N=C(N)c1ccc(C(=O)NCc2ccc(OCCCCCCOc3ccc(CNC(=O)c4ccc(C(=N)N)cc4)cc3)cc2)cc1 [Example 56, 1,6-Bis-{4-[(4-carbamimidoyl-benzenecarbonylamino)-methyl]-phenoxy}-hexane] | < 4.00 |  |  | < 4.00 | 5.80
15 | N=C(N)c1cccc(C(=O)NCc2ccc(OCCCOc3ccc(CNC(=O)c4cccc(C(=N)N)c4)cc3)cc2)c1 [Example 63, 1,3-Bis-{4-[(3-carbamimidoyl-benzoylamino)-methyl]-phenoxy}-propane] | < 4.00 |  | 7.70 | < 4.00 | 4.55
